# Marks after values point to notes of the source that are not given here.
# Tests used:
# lung cancer = lung cancer patients; cited from earlier work
# [1] = macrolide given to rats prior to carrageenan stimulation; cited from earlier work
# C-reactive protein (CRP) [2] = assay: CRP concentration in plasma and ascites (Rat High-Sensitive CRP ELISA), rat AH model; assay type: in vivo, female Wistar rats; conditions: Experiment 3; for Ascites [CRP] Mean: ascites fluid; for Ascites CRP ng/rat Mean: concentration times ascites volume; for Plasma [CRP] Mean: AH-inoculated
# Experimental: (§1) Following the method of Busquets et al., female Wistar rats were inoculated (Day 0) intraperitoneally (ip) with 2×10^7 cells/animal of Yoshida AH-130 ascites hepatoma (AH) cells. Control animals were inoculated with an equivalent amount of sterile saline solution. […] The roxithromycin dosing solution was 2 mg/mL in 20 mM citrate, pH of 5.5, and 4.5% mannitol in water. Serum samples were collected prior to sacrifice on D5 and assayed for serum albumin concentration. After determination of gastrocnemius muscle wet weight, some gastrocnemius samples were lysed and determinations made of C-reactive protein (CRP, using Quantikine Rat CRP Immunoassay Kit) and total protein. A commercial immunoassay kit (Quantikine Rat VEGF Immunoassay, R & D Systems PN RRV00) was used to determine Vascular Endothelial Growth Factor (VEGF) concentration in plasma and ascites. Similarly, CRP concentration in plasma and ascites was determined using a commercial kit (Rat High-Sensitive CRP ELISA Method, Kamiya Biochemical PN KT099). In Experiment 3, one treatment group received 40 mg/kg (ip) roxithromycin, and a second treatment group received 40 mg/kg (po). Ascites volumes, plasma CRP and VEGF concentrations, and ascites CRP and VEGF concentrations were determined.
# [3] = test system: Yoshida AH-130 ascites hepatoma (AH) cells; assay: Ascites volume in rat AH (Yoshida AH-130 ascites hepatoma) model; assay type: in vivo, female Wistar rats; conditions: for Ascites (mL) Mean: AH-inoculated rats
# Experimental: Following the method of Busquets et al., female Wistar rats were inoculated (Day 0) intraperitoneally (ip) with 2×10^7 cells/animal of Yoshida AH-130 ascites hepatoma (AH) cells. Control animals were inoculated with an equivalent amount of sterile saline solution. […] The roxithromycin dosing solution was 2 mg/mL in 20 mM citrate, pH of 5.5, and 4.5% mannitol in water. The animals were sacrificed on Day 5. Upon sacrifice ascites fluid was withdrawn by syringe and the volume determined. Three different experiments were performed. In each experiment one control group received an ascites hepatoma (AH) inoculation with vehicle treatment, and a second control group received saline inoculation with vehicle treatment. In Experiment 1, the single treatment group received 5 mg/kg roxithromycin (ip). Ascites volumes were determined. In Experiment 2, the single treatment group received 50 mg/kg roxithromycin (ip). Ascites volumes, serum albumin concentrations, and CRP levels in dissected gastrocnemius muscle were determined. AH cell counts and cell viability (%) were determined in recovered ascites fluid. In Experiment 3, one treatment group received 40 mg/kg (ip) roxithromycin, and a second treatment group received 40 mg/kg (po). Ascites volumes, plasma CRP and VEGF concentrations, and ascites CRP and VEGF concentrations were determined.
# serum albumin = assay: Serum albumin concentration, rat AH model; assay type: in vivo, female Wistar rats; conditions: Experiment 2; 50 mg/kg ip
# Experimental: Following the method of Busquets et al., female Wistar rats were inoculated (Day 0) intraperitoneally (ip) with 2×10^7 cells/animal of Yoshida AH-130 ascites hepatoma (AH) cells. Control animals were inoculated with an equivalent amount of sterile saline solution. […] The roxithromycin dosing solution was 2 mg/mL in 20 mM citrate, pH of 5.5, and 4.5% mannitol in water. […] In Experiment 2, the single treatment group received 50 mg/kg roxithromycin (ip). Ascites volumes, serum albumin concentrations, and CRP levels in dissected gastrocnemius muscle were determined. AH cell counts and cell viability (%) were determined in recovered ascites fluid.
# C-reactive protein (CRP) [4] = assay: C-reactive protein in gastrocnemius muscle lysate (Quantikine Rat CRP Immunoassay Kit), rat AH model; assay type: in vivo, female Wistar rats; conditions: Experiment 2, 50 mg/kg ip
# Experimental: Following the method of Busquets et al., female Wistar rats were inoculated (Day 0) intraperitoneally (ip) with 2×10^7 cells/animal of Yoshida AH-130 ascites hepatoma (AH) cells. Control animals were inoculated with an equivalent amount of sterile saline solution. […] The roxithromycin dosing solution was 2 mg/mL in 20 mM citrate, pH of 5.5, and 4.5% mannitol in water. Serum samples were collected prior to sacrifice on D5 and assayed for serum albumin concentration. After determination of gastrocnemius muscle wet weight, some gastrocnemius samples were lysed and determinations made of C-reactive protein (CRP, using Quantikine Rat CRP Immunoassay Kit) and total protein. A commercial immunoassay kit (Quantikine Rat VEGF Immunoassay, R & D Systems PN RRV00) was used to determine Vascular Endothelial Growth Factor (VEGF) concentration in plasma and ascites. Similarly, CRP concentration in plasma and ascites was determined using a commercial kit (Rat High-Sensitive CRP ELISA Method, Kamiya Biochemical PN KT099). In Experiment 2, the single treatment group received 50 mg/kg roxithromycin (ip). Ascites volumes, serum albumin concentrations, and CRP levels in dissected gastrocnemius muscle were determined. AH cell counts and cell viability (%) were determined in recovered ascites fluid.
# [5] = test system: Yoshida AH-130 ascites hepatoma (AH) cells; assay: AH cell count and viability in recovered ascites fluid, rat AH model; assay type: in vivo, female Wistar rats
# Experimental: Following the method of Busquets et al., female Wistar rats were inoculated (Day 0) intraperitoneally (ip) with 2×10^7 cells/animal of Yoshida AH-130 ascites hepatoma (AH) cells. Control animals were inoculated with an equivalent amount of sterile saline solution. […] The roxithromycin dosing solution was 2 mg/mL in 20 mM citrate, pH of 5.5, and 4.5% mannitol in water.
# For the cell count measurements in ascites, the cells were counted directly from the ascites collected at necropsy from N 4 animals in […]. A […] aliquot was taken from each sample and diluted 1:500 with trypan blue. The sample was then placed onto a hemacytometer and both sides counted to determine the total number of viable and non-viable AH cells.
# In Experiment 2, the single treatment group received 50 mg/kg roxithromycin (ip). Ascites volumes, serum albumin concentrations, and CRP levels in dissected gastrocnemius muscle were determined. AH cell counts and cell viability (%) were determined in recovered ascites fluid.
# [6] = test system: Vascular Endothelial Growth Factor (VEGF); assay: VEGF concentration in plasma and ascites (Quantikine Rat VEGF Immunoassay), rat AH model; assay type: in vivo, female Wistar rats; conditions: Experiment 3; for Ascites [VEGF] Mean: ascites fluid; for Ascites VEGF pg/rat Mean: concentration times ascites volume
# Experimental: as §1
# [7] = Experiment 2, ascites, AH-inoculated, 50 mg/kg ip, N = 4
structure (smiles),measurement,setting,value
CC[C@H]1OC(=O)[C@H](C)[C@@H](O[C@H]2C[C@@](C)(OC)[C@@H](O)[C@H](C)O2)[C@H](C)[C@@H](O[C@@H]2O[C@H](C)C[C@H](N(C)C)[C@H]2O)[C@](C)(OC)C[C@@H](C)C(=O)[C@H](C)[C@@H](O)[C@]1(C)O [clarithromycin],IL6 levels,lung cancer,reduced
same,Median survival time,lung cancer,significantly increased
CC[C@H]1OC(=O)[C@H](C)[C@@H](O[C@H]2C[C@@](C)(OC)[C@@H](O)[C@H](C)O2)[C@H](C)[C@@H](O[C@@H]2O[C@H](C)C[C@H](N(C)C)[C@H]2O)[C@](C)(O)C[C@@H](C)/C(=N\OCOCCOC)[C@H](C)[C@@H](O)[C@]1(C)O [roxithromycin],Exudate accumulation in rat paws,[1],limit exudate accumulation
same,Total CRP per rat in ascites versus vehicle control,C-reactive protein (CRP) [2]; 40 mg/kg given either orally or intraperitoneally,statistically significantly reduced
same,Plasma CRP concentration versus vehicle-treated animals,C-reactive protein (CRP) [2]; 40 mg/kg ip,"lowered plasma CRP concentration compared with the vehicle-treated animals, but the differences were not statistically significant"
same,Plasma CRP concentration versus vehicle-treated animals,C-reactive protein (CRP) [2]; 40 mg/kg oral,very significantly lowered
same,Ascites [CRP] Mean,C-reactive protein (CRP) [2]; 40 mg/kg i.p. qd (Group 9),230 ng/mL
same,Ascites [CRP] Mean,"C-reactive protein (CRP) [2]; 40 mg/kg oral, bid (Group 10)",287 ng/mL
same,Ascites CRP ng/rat Mean,C-reactive protein (CRP) [2]; 40 mg/kg i.p. qd (Group 9),530 ng/rat
same,Ascites CRP ng/rat Mean,"C-reactive protein (CRP) [2]; 40 mg/kg oral, bid (Group 10)",730 ng/rat
same,Plasma [CRP] Mean,C-reactive protein (CRP) [2]; 40 mg/kg i.p. qd,709 µg/mL
same,Plasma [CRP] Mean,"C-reactive protein (CRP) [2]; 40 mg/kg oral, bid",593 µg/mL
same,Accumulated ascites fluid versus vehicle control,"[3]; Experiment 1, 5 mg/kg (ip), difference not statistically significant",lowered the accumulated ascites fluid
same,Ascites (mL) Mean,"[3]; Experiment 1, 5 mg/kg ip qd from Day 1, sacrifice Day 5",3.48** mL
same,Accumulated ascites volume versus vehicle control,"[3]; Experiment 2, 50 mg/kg ip",very significantly reduced
same,Ascites (mL) Mean,"[3]; Experiment 2, 50 mg/kg ip qd, Day 5",2.92 mL
same,Accumulated ascites volume versus vehicle control,"[3]; Experiment 3, 40 mg/kg given either po or ip",very significantly reduced
same,Ascites (mL) Mean,"[3]; Experiment 3, 40 mg/kg i.p. qd, Day 5",3.0 mL
same,Ascites (mL) Mean,"[3]; Experiment 3, 40 mg/kg oral, bid, Day 5",3.7 mL
same,Serum albumin levels versus AH-inoculated vehicle animals,serum albumin,did not significantly change
same,Muscle CRP levels versus AH-inoculated vehicle animals,C-reactive protein (CRP) [4],did significantly reduce
same,Muscle CRP Mean,"C-reactive protein (CRP) [4]; gastrocnemius muscle, AH-inoculated rats",28.5 ng/mg total protein
same,AH cell densities or cell counts versus vehicle control,"[5]; Experiment 2, 50 mg/kg ip",did not reduce
same,Viable Cells % Mean,"[5]; Experiment 2, ascites AH cells, trypan blue, 50 mg/kg ip, N = 4",99%
same,Cells/mL × 10^6 Mean,[5]; [7],338 Cells/mL × 10^6
same,Total Cells # × 10^6 Mean,[5]; [7],"2,077 × 10^6"
same,Cytostatic or cytotoxic activity toward ascites hepatoma cells,"[5]; rat AH model, conclusion from cell counts and viability",does not appear to be cytostatic or cytotoxic
same,Ascites [VEGF] Mean,[6]; 40 mg/kg i.p. qd (Group 9),"4,590 pg/mL"
same,Ascites [VEGF] Mean,"[6]; 40 mg/kg oral, bid (Group 10)","4,040 pg/mL"
same,Ascites VEGF pg/rat Mean,[6]; 40 mg/kg i.p. qd (Group 9),"10,200 pg/rat"
same,Ascites VEGF pg/rat Mean,"[6]; 40 mg/kg oral, bid (Group 10)","9,900 pg/rat"
same,Plasma VEGF concentration,"[6]; plasma, 40 mg/kg ip qd or oral bid",below the immunoassay method quantitation limit
same,Influence on VEGF levels,[6]; rat AH model,does not influence VEGF levels
